Test results as given in US8173813B2, “Quinolone and tetrahydroquinolone and related compounds having NOS inhibitory activity” (NeurAxon, Inc., priority 2007, dated 2012).
pIC50: −log10 of the molar value. Read-outs that look alike come from different tables or passages of the source.

What was measured:
[1] = biological target: Nitric oxide synthase (neuronal, human recombinant) nNOS (Homo sapiens, UniProt P29475); assay: Human nNOS enzyme assay ([3H]L-arginine to [3H]L-citrulline); type: biochemical; conditions: for pIC50: read-out: hnNOS IC50; for Selectivity eNOS/nNOS: human enzymes, ratio of eNOS IC50 to nNOS IC50
Chain of Nitric oxide synthase (neuronal, human recombinant) nNOS (P29475 whole entry): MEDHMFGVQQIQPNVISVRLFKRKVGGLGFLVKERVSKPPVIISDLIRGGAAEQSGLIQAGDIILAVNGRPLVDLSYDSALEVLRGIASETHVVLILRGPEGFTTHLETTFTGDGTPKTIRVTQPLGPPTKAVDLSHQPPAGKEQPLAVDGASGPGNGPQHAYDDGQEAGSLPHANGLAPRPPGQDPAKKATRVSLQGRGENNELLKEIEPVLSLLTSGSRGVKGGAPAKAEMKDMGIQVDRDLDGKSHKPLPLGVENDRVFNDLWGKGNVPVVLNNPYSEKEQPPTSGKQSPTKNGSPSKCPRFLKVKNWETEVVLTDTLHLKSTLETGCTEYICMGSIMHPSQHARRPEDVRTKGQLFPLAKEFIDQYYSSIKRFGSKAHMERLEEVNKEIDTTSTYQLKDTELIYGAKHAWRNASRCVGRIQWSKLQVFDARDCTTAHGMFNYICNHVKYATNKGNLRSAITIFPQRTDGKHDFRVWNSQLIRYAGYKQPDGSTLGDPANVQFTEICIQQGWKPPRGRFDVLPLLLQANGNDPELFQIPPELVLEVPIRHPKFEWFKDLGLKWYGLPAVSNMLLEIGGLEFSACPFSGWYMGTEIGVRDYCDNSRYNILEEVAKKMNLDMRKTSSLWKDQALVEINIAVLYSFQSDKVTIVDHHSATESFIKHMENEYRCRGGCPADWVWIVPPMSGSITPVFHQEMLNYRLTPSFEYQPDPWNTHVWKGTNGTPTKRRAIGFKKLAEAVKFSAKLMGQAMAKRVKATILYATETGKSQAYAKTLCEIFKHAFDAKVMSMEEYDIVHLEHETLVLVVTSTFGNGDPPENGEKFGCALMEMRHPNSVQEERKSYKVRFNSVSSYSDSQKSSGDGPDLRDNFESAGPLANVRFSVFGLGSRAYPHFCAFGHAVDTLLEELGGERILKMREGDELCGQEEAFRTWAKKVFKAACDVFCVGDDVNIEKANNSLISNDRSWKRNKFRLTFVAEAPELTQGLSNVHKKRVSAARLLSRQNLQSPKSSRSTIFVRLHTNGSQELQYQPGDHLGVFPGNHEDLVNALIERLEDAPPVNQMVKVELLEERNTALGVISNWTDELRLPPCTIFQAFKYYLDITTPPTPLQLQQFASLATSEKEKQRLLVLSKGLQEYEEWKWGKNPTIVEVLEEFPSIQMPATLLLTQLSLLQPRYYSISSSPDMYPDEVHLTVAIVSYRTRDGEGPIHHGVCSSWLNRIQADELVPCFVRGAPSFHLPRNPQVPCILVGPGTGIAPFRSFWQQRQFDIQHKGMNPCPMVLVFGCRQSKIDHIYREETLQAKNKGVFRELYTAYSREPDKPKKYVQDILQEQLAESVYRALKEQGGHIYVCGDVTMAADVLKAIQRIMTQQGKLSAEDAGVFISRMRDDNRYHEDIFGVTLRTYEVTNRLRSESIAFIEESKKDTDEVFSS

[2] = biological target: iNOS (Mouse) (Mus musculus, UniProt P29477); assay: iNOS (Mouse) enzyme assay; type: biochemical; conditions: values in parentheses, read-out: iNOS IC50 (rodent data in parentheses)
Description: (§1) nNOS (Rat), eNOS (Rat) and iNOS (Mouse) Enzyme Assay Recombinant rat or mouse NO synthases (iNOS, eNOS, nNOS) were expressed in Sf9 cells (Sigma), 36 mg prot/ml (Bradford). […] Inhibition of NOS was determined by measuring the formation of L-[3H] citrulline from L-[3H] arginine. […] Stop buffer:100 mM Hepes, pH 5.5, 3 mM EDTA, 3 mM EGTA. Enzyme and inhibitor were pre-incubated for 35 min in the presence of NADPH before addition of arginine to initiate the reaction.

[3] = biological target: nNOS (Rat) (Rattus norvegicus, UniProt P29476); assay: nNOS (Rat) enzyme assay; type: biochemical; conditions: for pIC50: read-out: nNOS IC50 (rodent data in parentheses); for Selectivity eNOS/nNOS (rodent data in parentheses): rodent enzymes
Description: as §1, with “EGTA.” for “EGTA. Enzyme and inhibitor were pre-incubated for 35 min in the presence of NADPH before addition of arginine to initiate the reaction.”

[4] = biological target: Nitric oxide synthase (endothelial, human recombinant) eNOS (Homo sapiens, UniProt P29474); assay: Human eNOS enzyme assay ([3H]L-arginine to [3H]L-citrulline); type: biochemical; conditions: read-out: heNOS IC50
Chain of Nitric oxide synthase (endothelial, human recombinant) eNOS (P29474 2-1203): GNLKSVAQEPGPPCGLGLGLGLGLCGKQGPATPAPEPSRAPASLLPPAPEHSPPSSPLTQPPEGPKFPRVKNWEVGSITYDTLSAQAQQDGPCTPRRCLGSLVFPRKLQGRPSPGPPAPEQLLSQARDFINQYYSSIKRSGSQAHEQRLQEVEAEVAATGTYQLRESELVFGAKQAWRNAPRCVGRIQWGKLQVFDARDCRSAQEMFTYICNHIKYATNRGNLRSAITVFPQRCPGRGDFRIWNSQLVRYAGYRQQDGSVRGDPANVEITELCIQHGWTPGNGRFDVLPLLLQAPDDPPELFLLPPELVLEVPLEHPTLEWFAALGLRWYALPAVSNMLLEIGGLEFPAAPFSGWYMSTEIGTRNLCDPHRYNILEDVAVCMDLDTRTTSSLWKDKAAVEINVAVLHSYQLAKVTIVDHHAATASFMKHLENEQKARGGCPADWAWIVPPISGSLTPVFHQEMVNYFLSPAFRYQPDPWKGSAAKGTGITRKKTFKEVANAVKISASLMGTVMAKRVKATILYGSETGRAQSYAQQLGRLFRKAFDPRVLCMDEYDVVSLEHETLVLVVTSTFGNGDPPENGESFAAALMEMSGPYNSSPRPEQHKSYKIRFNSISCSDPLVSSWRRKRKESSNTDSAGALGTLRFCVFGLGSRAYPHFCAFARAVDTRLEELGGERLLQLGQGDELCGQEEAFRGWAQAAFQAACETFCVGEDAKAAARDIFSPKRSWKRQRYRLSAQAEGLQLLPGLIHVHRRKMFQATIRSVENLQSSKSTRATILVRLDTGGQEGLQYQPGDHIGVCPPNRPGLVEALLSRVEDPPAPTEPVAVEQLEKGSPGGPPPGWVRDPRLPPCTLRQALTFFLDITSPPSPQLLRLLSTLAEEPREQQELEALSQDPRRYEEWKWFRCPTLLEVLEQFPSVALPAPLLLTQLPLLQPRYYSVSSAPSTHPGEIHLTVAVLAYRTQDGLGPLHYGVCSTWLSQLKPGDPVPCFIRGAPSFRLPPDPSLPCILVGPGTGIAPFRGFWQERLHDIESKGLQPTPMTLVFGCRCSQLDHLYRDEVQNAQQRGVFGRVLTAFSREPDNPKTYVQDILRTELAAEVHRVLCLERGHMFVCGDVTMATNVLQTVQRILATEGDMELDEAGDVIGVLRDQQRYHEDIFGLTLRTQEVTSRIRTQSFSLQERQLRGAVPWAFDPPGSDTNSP

[5] = biological target: eNOS (Rat) (Rattus norvegicus, UniProt Q62600); assay: eNOS (Rat) enzyme assay; type: biochemical; conditions: values in parentheses, read-out: eNOS IC50 (rodent data in parentheses)
Chain of eNOS (Rat) (Q62600 2-1202): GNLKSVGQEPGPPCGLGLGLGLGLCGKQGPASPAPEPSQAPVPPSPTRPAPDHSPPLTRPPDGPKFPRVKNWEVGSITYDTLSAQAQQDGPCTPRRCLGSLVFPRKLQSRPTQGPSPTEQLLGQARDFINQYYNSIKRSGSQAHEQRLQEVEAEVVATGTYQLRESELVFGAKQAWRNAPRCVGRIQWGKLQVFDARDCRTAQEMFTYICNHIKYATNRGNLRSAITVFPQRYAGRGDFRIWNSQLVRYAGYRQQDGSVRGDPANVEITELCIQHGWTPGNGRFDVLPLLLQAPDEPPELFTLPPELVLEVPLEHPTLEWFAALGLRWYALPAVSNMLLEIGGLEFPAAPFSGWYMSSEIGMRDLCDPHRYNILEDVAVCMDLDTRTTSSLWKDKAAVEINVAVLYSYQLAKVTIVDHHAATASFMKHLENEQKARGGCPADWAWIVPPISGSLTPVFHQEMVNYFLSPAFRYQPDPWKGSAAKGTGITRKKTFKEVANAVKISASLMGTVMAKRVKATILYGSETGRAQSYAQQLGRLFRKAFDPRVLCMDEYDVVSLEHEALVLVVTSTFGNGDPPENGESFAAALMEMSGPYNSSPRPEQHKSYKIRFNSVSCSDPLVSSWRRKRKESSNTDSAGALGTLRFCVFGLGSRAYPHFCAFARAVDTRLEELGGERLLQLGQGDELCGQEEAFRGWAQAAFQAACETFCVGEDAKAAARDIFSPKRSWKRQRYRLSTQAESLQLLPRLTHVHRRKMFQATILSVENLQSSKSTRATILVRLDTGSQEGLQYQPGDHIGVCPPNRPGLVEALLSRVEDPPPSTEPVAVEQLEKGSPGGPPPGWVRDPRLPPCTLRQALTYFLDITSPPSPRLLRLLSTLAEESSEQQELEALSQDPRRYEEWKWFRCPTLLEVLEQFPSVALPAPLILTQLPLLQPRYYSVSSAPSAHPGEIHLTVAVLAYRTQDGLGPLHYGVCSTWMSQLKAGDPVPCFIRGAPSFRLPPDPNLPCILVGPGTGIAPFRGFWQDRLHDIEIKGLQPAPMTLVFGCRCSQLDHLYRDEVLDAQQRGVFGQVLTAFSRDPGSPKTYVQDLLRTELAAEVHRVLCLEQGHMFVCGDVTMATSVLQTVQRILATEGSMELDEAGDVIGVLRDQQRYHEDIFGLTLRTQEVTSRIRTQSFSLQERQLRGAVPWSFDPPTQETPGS

[6] = tested on: Rats with L5/L6 spinal nerve ligation; assay: Chung Spinal Nerve Ligation model, thermal hyperalgesia; type: in vivo, rat; conditions: standard dosings 3, 10, and 30 mg/kg injected IP
[7] = tested on: Male, Sprague Dawley rats; assay: Porreca model of allodynia (inflammatory soup onto the dura, hindpaw von Frey); type: in vivo, rat
[8] = biological target: Recombinant human inducible NOS (iNOS) (Homo sapiens, UniProt P35228); assay: Human iNOS enzyme assay, radiometric; type: biochemical; conditions: read-out: hiNOS IC50
Chain of Recombinant human inducible NOS (iNOS) (P35228 whole entry): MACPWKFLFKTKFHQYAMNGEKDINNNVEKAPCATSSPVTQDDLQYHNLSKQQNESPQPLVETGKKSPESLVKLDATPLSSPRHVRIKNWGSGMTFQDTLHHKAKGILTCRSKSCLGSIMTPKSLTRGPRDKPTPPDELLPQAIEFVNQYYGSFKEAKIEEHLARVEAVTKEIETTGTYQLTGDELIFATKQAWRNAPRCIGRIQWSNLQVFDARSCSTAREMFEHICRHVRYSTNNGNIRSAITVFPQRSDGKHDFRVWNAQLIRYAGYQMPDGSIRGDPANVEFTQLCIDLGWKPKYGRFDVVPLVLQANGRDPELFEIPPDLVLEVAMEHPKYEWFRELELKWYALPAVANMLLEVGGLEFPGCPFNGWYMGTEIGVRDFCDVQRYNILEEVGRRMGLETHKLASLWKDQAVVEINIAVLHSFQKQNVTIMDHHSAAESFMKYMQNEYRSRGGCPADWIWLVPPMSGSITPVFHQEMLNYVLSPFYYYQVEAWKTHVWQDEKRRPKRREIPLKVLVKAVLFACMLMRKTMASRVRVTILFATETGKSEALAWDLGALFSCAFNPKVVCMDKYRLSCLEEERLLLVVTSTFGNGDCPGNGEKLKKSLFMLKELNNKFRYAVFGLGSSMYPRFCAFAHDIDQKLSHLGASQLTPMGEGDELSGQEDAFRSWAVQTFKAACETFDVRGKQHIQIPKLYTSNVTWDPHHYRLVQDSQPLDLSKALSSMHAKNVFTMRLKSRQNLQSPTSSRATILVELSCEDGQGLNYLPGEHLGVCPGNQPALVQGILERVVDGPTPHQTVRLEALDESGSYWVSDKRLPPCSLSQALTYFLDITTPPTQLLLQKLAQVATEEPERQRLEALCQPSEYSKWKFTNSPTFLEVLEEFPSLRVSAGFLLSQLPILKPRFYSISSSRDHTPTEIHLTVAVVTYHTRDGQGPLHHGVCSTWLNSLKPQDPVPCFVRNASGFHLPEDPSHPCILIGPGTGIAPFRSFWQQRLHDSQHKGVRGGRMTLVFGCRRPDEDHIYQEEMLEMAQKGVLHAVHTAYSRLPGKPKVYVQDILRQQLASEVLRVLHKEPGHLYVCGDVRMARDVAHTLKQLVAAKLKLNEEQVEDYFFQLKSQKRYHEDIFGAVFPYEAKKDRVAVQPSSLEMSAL

[9] = tested on: sciatic nerve cuff-implanted rats; assay: Sciatic Nerve Cuff model, cold plate test (paw lifts); type: in vivo, rat; conditions: daily i.p. 30 mg/kg; cold plate 4±2° C.; 10-minute test period; average
Source text: The animal will be placed into a box of approximately 12×12×12 inches. The bottom is filled with an ice-saline mixture and a metal plate is placed just on top of this mixture. […]
[…] Post-testing treatment—the feet will be wiped with a soft cloth or paper towel and the animal will be placed back in its home cage for five minutes. An allowance will be made for the time necessary to transfer to as well as adaptation to the next testing apparatus.
The method of inducing peripheral neuropathy is by implantation of a single cuff around the sciatic nerve, modified from the method described by Mosconi and Kruger (1996), where two to four cuffs were used. Rats are anaesthetized with a combination of ketamine (5 mg/100 g) and xylazine (0.5 mg/100 g), i.p. The left sciatic nerve is exposed after blunt dissection of overlying muscle and freed from surrounding tissue. A cuff made of a 2 mm segment of polyethylene (PE-90) tubing (Intramedic PE-90, Clay Adams, Division of Becton Dickinson, Parsippany, N.J.) slit longitudinally is fit around the nerve. Subsequently the muscle is sutured, and skin closed using suture clips. Antibiotic ointment (Nitrofurazone 0.2%) is applied over the wound, and 0.03 ml of the antibiotic Tribrissen 24% (trimethoprim-sulfadiazine) is injected subcutaneously. […]

[10] = tested on: sciatic nerve cuff-implanted rats; assay: Sciatic Nerve Cuff model, mechanical allodynia (von Frey hair); type: in vivo, rat; conditions: i.p 30 mg/kg
Description: The Sciatic Nerve Cuff model in rats (Mosconi and Kruger, 1996, Pain 64, 37-57) involves implantation of a plastic cuff around the sciatic nerve that results in painful neuropathy several days after surgery and induction of nociceptive afterdischarge in spinal neurons after innocuous peripheral mechanical stimulation (G. M. Pitcher and J. L. Henry). Mechanical allodynia is measured in the ipsilateral paw using calibrated von Frey hair testing. A single acute application of the drug (i.p. dosing) reverses the post-cuff pain thresholds to mechanical stimulus towards normal threshold levels.
The study utilized a cuff model (Mosconi T, Kruger L. Fixed-diameter polyethylene cuffs applied to the rat sciatic nerve induce a painful neuropathy: ultrastructural morphometric analysis of axonal alterations. Pain 64: 37-57, 1996) to examine the therapeutic effectiveness of the test compound 11 on a battery of behavioural endpoints in rats.
The testing chamber consists of a 30×30×30 cm Plexiglas box with a clear Plexiglas floor. This floor contained 0.5 cm diameter holes that are spaced 1.5 cm apart, and is positioned over a mirror, which allows an unobstructed view of the rat paws. Animals are placed in the testing chamber and allowed to acclimatize for 30 min prior to testing. von Frey filaments (Stoelting Co., Illinois, USA) are applied to the soft tissue of the plantar surface of the hind paw to determine the withdrawal threshold. The first filament applied corresponds to a force of 4.31 grams. […] A 50% response threshold is calculated according to the response pattern observed (described by Chaplan et al. 1994). […]
A baseline reading with von Frey hairs is taken before model induction. Thus rats are acclimatized to the testing chamber and readings are taken for at least three days for the baseline before any surgery. After the surgery von Frey hair testing for any development of mechanical sensitivity is assessed. […]

[11] = tested on: sciatic nerve cuff-implanted rats; assay: Sciatic Nerve Cuff model, hind leg weight bearing; type: in vivo, rat
Description: The method of inducing peripheral neuropathy is by implantation of a single cuff around the sciatic nerve, modified from the method described by Mosconi and Kruger (1996), where two to four cuffs were used. Rats are anaesthetized with a combination of ketamine (5 mg/100 g) and xylazine (0.5 mg/100 g), i.p. The left sciatic nerve is exposed after blunt dissection of overlying muscle and freed from surrounding tissue. A cuff made of a 2 mm segment of polyethylene (PE-90) tubing (Intramedic PE-90, Clay Adams, Division of Becton Dickinson, Parsippany, N.J.) slit longitudinally is fit around the nerve. Subsequently the muscle is sutured, and skin closed using suture clips. Antibiotic ointment (Nitrofurazone 0.2%) is applied over the wound, and 0.03 ml of the antibiotic Tribrissen 24% (trimethoprim-sulfadiazine) is injected subcutaneously. Animals are placed under a heating lamp until they recovered from the anaesthetic and then returned to their home cage.

[12] = human recombinant nNOS, values without parentheses
[13] = rat nNOS, values in parentheses
[14] = human recombinant iNOS, values without parentheses
[15] = human recombinant eNOS, values without parentheses

| pIC50 [1, 12] | pIC50 [8, 14] | Structure (SMILES) | pIC50 [2] | pIC50 [3, 13] | pIC50 [5] | antihyperalgesic effect in the Chung model [6] | pIC50 [4, 15] | Selectivity eNOS/nNOS [1] | pIC50 [8] | further results |
| --- | --- | --- | --- | --- | --- | --- | --- | --- | --- | --- |
| 6.36 | 4.45 | CN(C)CCN1CCCCc2cc(NC(=N)c3cccs3)ccc21.Cl.Cl [Example 28, N-(1-(2-(Dimethylamino)ethyl)-2,3,4,5-tetrahydro-1H-benzo[b]azepin-7-yl)thiophene-2-carboximidamide dihydrochloride] | < 4.00 | 6.92 | 4.20 | clear antihyperalgesic effect |  |  |  | pIC50 [4]: 4.00; hindpaw allodynia after inflammatory soup (IS) ([7]; 30 mg/kg p.o. 15 minutes prior to IS): reverses the development of hindpaw allodynia |
| 6.60 | 6.07 | CN(C)CCN1CCCc2cc(NC(=N)c3cccs3)ccc21 [Example 11, N-(1-(2-(dimethylamino)ethyl)-1,2,3,4-tetrahydroquinolin-6-yl)thiophene-2-carboximidamide] | < 4.00 | 6.34 | < 4.00 | clear antihyperalgesic effect | 4.42 |  |  | pIC50 [1]: 6.37; paw lifts in the cold plate test [9]: approximately nine; tactile hypersensitivity, pre-injection reading on the second drug-administration day ([10]; latent effect of the first dose): sustained reversal of the tactile hypersensitivity; tactile sensitivity on successive days of administration ([10]; successive days): no further overt effect; tactile hypersensitivity (von Frey) after first injection ([10]; two and four hours after the first injection): reversed the tactile hypersensitivity; pIC50 [4]: 4.23; hind paw weight placement 24 hours after the first dose ([11]; 24 hours after the first dose): preferential placement on the contralateral hind paw; hind paw weight placement on successive days ([11]; drug administration on successive days): shift in hind paw weight placement toward even distribution on each day; hind paw weight placement, first day ([11]; first day, two hours and four hours after drug administration): shift in weight placement toward even distribution between the two hind paws |
| 5.91 | 5.36 | CN1CCC(N2CCc3cc(NC(=N)c4cccs4)ccc32)CC1 [Example 37, N-(1-(1-Methylpiperidin-4-yl)indolin-5-yl)thiophene-2-carboximidamide] |  |  |  | clear antihyperalgesic effect | 4.30 | 41.2 |  |  |
|  |  | CNS(=O)(=O)Cc1ccc2[nH]cc(CCN(C)C)c2c1 [Sumatriptan succinate, reference compound] |  |  |  |  |  |  |  | hindpaw allodynia after inflammatory soup (IS) ([7]; 1 mg/kg s.c. 5 minutes prior to the soup, measured two hours after IS): prevention of the development of hindpaw allodynia |
| 6.22 | 5.26 | CN1CCC(C2C(=O)Nc3ccc(NC(=N)c4cccs4)cc32)CC1 (centres unmarked) [Example 31, N-(3-(1-Methylpiperidin-4-yl)-2-oxoindolin-5-yl)thiophene-2-carboximidamide] | < 4.00 | 6.00 | < 4.00 |  | 4.64 | 38.3 |  |  |
|  |  | CN(C)CCN1C(=O)CCc2cc(NC(=N)c3cccs3)ccc21 [Example 3, N-(1-(2-(dimethylamino)ethyl)-2-oxo-1,2,3,4-tetrahydroquinolin-6-yl)thiophene-2-carboximidamide] | < 4.00 |  | 4.19 | no antihyperalgesic effect |  |  | 4.49 | pIC50 [1]: 6.24; pIC50 [3]: 6.68 |
| 6.22 | 5.18 | N=C(Nc1ccc2c(c1)CCCN2C1CCNCC1)c1cccs1 [Example 47] | 6.47 | 5.42 | < 4.00 | clear antihyperalgesic effect | 3.81 | 260 |  |  |

| Structure (SMILES) | pIC50 [1, 12] | pIC50 [8, 14] | pIC50 [2] | pIC50 [3, 13] | pIC50 [5] | antihyperalgesic effect in the Chung model [6] | pIC50 [4, 15] | Selectivity eNOS/nNOS [1] | pIC50 [8] | further results |
| --- | --- | --- | --- | --- | --- | --- | --- | --- | --- | --- |
| N=C(Nc1ccc2c(c1)CCCCN2CCN1CCCC1)c1cccs1 [Example 27, N-(1-(2-(Pyrrolidin-1-yl)ethyl)-2,3,4,5-tetrahydro-1H-benzo[b]azepin-7-yl)thiophene-2-carboximidamide] | 6.46 |  | < 4.00 | 7.04 | 4.38 |  | 4.31 | 138 | 4.26 | Selectivity eNOS/nNOS (rodent data in parentheses) ([3]; values in parentheses): (523) |
| CC(C)NCCN1CCCc2cc(NC(=N)c3cccs3)ccc21 [Example 61, N-(1-(2-(Isopropylamino)ethyl)-1,2,3,4-tetrahydroquinolin-6-yl)thiophene-2-carboximidamide] | 6.59 |  | 5.10 | 5.96 | 5.21 |  | 4.52 | 116 | 5.54 | Selectivity eNOS/nNOS (rodent data in parentheses) ([3]; values in parentheses): (5.6) |
| CN1CCCC1CCN1CCCc2cc(NC(=N)c3cccs3)ccc21 (single isomer, unassigned) [Example 24, N-(1-(2-(1-Methylpyrrolidin-2-yl)ethyl)-1,2,3,4-tetrahydroquinolin-6-yl)thiophene-2-carboximidamide] | 6.77 |  | < 4.00 |  | 4.66 |  | 4.81 | 91.7 | 4.48 | pIC50 [3]: 6.92; Selectivity eNOS/nNOS (rodent data in parentheses) ([3]; values in parentheses): (183) |
| N=C(Nc1ccc2c(c1)CCC(=O)N2CCN1CCCCC1)c1cccs1 [Example 1, N-(2-oxo-1-(2-(piperidin-1-yl)ethyl)-1,2,3,4-tetrahydroquinolin-6-yl)thiophene-2-carboximidamide] |  | 4.41 | 5.07 | 7.66 | 4.28 |  |  |  |  | pIC50 [1]: 6.11; pIC50 [4]: 4.60 |
| Cl.Cl.N=C(Nc1ccc2c(c1)CCN2C1CCNCC1)c1cccs1 [Example 54, N-(1-(Piperidin-4-yl)indolin-5-yl)thiophene-2-carboximidamide dihydrochloride] | 6.57 |  | 5.12 | 5.59 | 4.92 | clear antihyperalgesic effect | 4.34 | 170 | < 4.00 |  |
